# Reference: ChEMBL document CHEMBL2202954, “The effect of PLC-γ2 inhibitors on the growth of human tumour cells” (2012)
# Key:
# Assay type in all cases: functional
# SK-MEL-5 = assay: Cytotoxicity against human SK-MEL-5 cells assessed as cellular growth at 10 uM by SRB assay
# BT-549 = assay: Cytotoxicity against human BT549 cells assessed as cellular growth at 10 uM by SRB assay
# NCI-H322M = assay: Cytotoxicity against human NCI-H322M cells assessed as cellular growth at 10 uM by SRB assay
# UACC-62 = assay: Cytotoxicity against human UACC62 cells assessed as cellular growth at 10 uM by SRB assay
# Malme-3M = assay: Cytotoxicity against human MALME-3M cells assessed as cellular growth at 10 uM by SRB assay
# RPMI-8226 = assay: Cytotoxicity against human RPMI8226 cells assessed as cellular growth at 10 uM by SRB assay
# EKVX = assay: Cytotoxicity against human EKVX cells assessed as cellular growth at 10 uM by SRB assay
# SK-MEL-28 = assay: Cytotoxicity against human SK-MEL-28 cells assessed as cellular growth at 10 uM by SRB assay
# M14 = assay: Cytotoxicity against human M14 cells assessed as cellular growth at 10 uM by SRB assay
# MOLT-4 = assay: Cytotoxicity against human MOLT4 cells assessed as cellular growth at 10 uM by SRB assay
# DU-145 = assay: Cytotoxicity against human DU145 cells assessed as cellular growth at 10 uM by SRB assay
# SNB-75 = assay: Cytotoxicity against human SNB75 cells assessed as cellular growth at 10 uM by SRB assay
# OVCAR-8 = assay: Cytotoxicity against human OVCAR8 cells assessed as cellular growth at 10 uM by SRB assay
# OVCAR-3 = assay: Cytotoxicity against human OVCAR3 cells assessed as cellular growth at 10 uM by SRB assay
# HT-29 = assay: Cytotoxicity against human HT-29 cells assessed as cellular growth at 10 uM by SRB assay
# ACHN = assay: Cytotoxicity against human ACHN cells assessed as cellular growth at 10 uM by SRB assay
# MCF7 = assay: Cytotoxicity against human MCF7 cells assessed as cellular growth at 10 uM by SRB assay
# Hs-578T = assay: Cytotoxicity against human Hs578T cells assessed as cellular growth at 10 uM by SRB assay
# UACC-257 = assay: Cytotoxicity against human UACC257 cells assessed as cellular growth at 10 uM by SRB assay
# NCI-H23 = assay: Cytotoxicity against human NCI-H23 cells assessed as cellular growth at 10 uM by SRB assay
SMILES,Activity (SK-MEL-5),Activity (BT-549),Activity (NCI-H322M),Activity (UACC-62),Activity (Malme-3M),Activity (RPMI-8226),Activity (EKVX),Activity (SK-MEL-28),Activity (M14),Activity (MOLT-4),Activity (DU-145),Activity (SNB-75),Activity (OVCAR-8),Activity (OVCAR-3),Activity (HT-29),Activity (ACHN),Activity (MCF7),Activity (Hs-578T),Activity (UACC-257),Activity (NCI-H23)
O=C(NCc1cccnc1)c1sc2cc([N+](=O)[O-])ccc2c1Cl,96.88%,97.89%,101.48%,89.48%,105.28%,94.49%,90.5%,110.01%,108.24%,93.36%,105.44%,91.37%,96.34%,100.57%,106.56%,106.03%,92.75%,92.59%,92.34%,97.31%
Nc1c(C(=O)Nc2ccccc2F)sc2nc3c(cc12)C(=O)CCC3,17.91%,59.83%,68.76%,23.7%,,52.02%,56.31%,64.11%,19.18%,73.64%,8.4%,13.66%,58.62%,16.76%,12.19%,65.41%,22.91%,37.25%,66.94%,42.84%
Cc1ccccc1NC(=O)c1sc2nc3c(cc2c1N)C(=O)CCC3,18.64%,55.62%,71.39%,36.9%,66.45%,67.19%,87.53%,52.79%,41.54%,67.51%,18.31%,13.12%,78.59%,4.33%,21.08%,49.27%,21.69%,25.78%,60.99%,50.58%
Nc1c(C(=O)Nc2ccc(Cl)c(Cl)c2)sc2nc(-c3cccs3)ccc12,90.4%,76.11%,95.09%,79.48%,90.04%,87.02%,93.39%,97.42%,87.97%,83.49%,91.96%,86.26%,98.27%,100.29%,87.42%,99.6%,87.77%,129.34%,91.24%,68.82%
Clc1ccc(-c2nc(-c3cccs3)no2)c(Cl)c1,83.92%,83.02%,120.06%,88.98%,102.62%,86.03%,72.63%,103.74%,100.46%,,99.3%,63.47%,97.12%,99.18%,,99.79%,29.22%,96.13%,76.15%,92.64%
CC1(C)CC(=O)c2cc3c(N)c(C(=O)Nc4ccc(F)cc4)sc3nc2C1,99.04%,111.85%,110.83%,119.59%,116.52%,103.3%,100.32%,113.65%,121.48%,121.66%,122.42%,114.82%,108.67%,117.81%,110.56%,112.82%,105.49%,111.09%,107.39%,102%
Cc1cc(C)c(NC(=O)c2sc3nc4c(cc3c2N)C(=O)CC(C)(C)C4)c(C)c1,89.79%,109.43%,115.34%,96.9%,92.73%,90.56%,92.06%,107.04%,107.36%,100.05%,127.81%,105.78%,107.09%,112.82%,96.21%,106.81%,99.03%,108.69%,101.32%,94.31%
COc1cccc(C(=O)Nc2nc3ccc(Cl)cc3s2)c1,81.61%,101.44%,104.25%,87.44%,95.69%,84.4%,81.47%,101.98%,102.54%,83.68%,104.09%,109.63%,98.65%,100.09%,80.12%,91.34%,85.29%,110.55%,94.74%,81.36%
COc1ccc(Cl)cc1C(=O)Nc1nc2ccc(Cl)cc2s1,92.79%,97.73%,85.62%,91.53%,83.31%,80.55%,76.23%,105.02%,95.14%,95.65%,94.89%,74.28%,88.9%,102.8%,109.45%,85.89%,41.75%,102.47%,101.95%,90.46%
Cc1ccc(S(=O)(=O)Oc2ccc(-c3cnc4ccccc4n3)cc2)cc1,84.98%,107.31%,113.67%,94.5%,122.99%,88.46%,98.5%,113.2%,123.34%,89.3%,114.58%,117.79%,96.94%,115.17%,89.62%,102.63%,98.34%,110.2%,102.87%,96.23%
Clc1cccc(-c2nc(-c3cccs3)no2)c1,87.95%,101.91%,99.44%,88.07%,111.38%,95.28%,85.39%,111.9%,105.36%,96.35%,97.4%,88.55%,101.14%,102.94%,95.99%,101.08%,33.74%,99.53%,86.41%,89.88%
COc1ccc(NC(=O)c2sc3nc4c(cc3c2N)C(=O)CCC4)cc1,98.62%,103.09%,57.79%,110.45%,102.12%,104.85%,102.57%,106.67%,103.89%,115.9%,102.19%,103.13%,107.58%,103.75%,108.88%,105.22%,104.14%,135.57%,117.22%,96.26%
O=S(=O)(Oc1ccc(-c2cnc3ccccc3n2)cc1)c1ccc2ccccc2c1,84.35%,122.04%,137.19%,82.67%,,89.09%,94.26%,112.84%,100.37%,89.91%,104.01%,119.77%,110.71%,107.67%,82.27%,118.15%,103.49%,105.04%,114.11%,100.37%
COc1ccc(S(=O)(=O)n2ccc(-c3ccc4c(c3)CCC(C)(C)O4)n2)cc1,42.57%,65.47%,101%,50.48%,109.7%,49.25%,51.56%,98.27%,86.46%,65.89%,,83.99%,83.81%,81.18%,84.48%,104.15%,73.48%,97.76%,57.41%,59.58%
O=c1/c(=C/c2ccccc2)sc2nc(-c3ccc(Cl)cc3Cl)nn12,104.93%,105.68%,131.46%,103%,121.75%,111.72%,110.01%,109.52%,103.86%,,108.27%,80.26%,102.91%,105.06%,,109.45%,100.42%,102.33%,83.86%,102.55%
O=C(NCCc1ccccc1)c1cc2cccc([N+](=O)[O-])c2[nH]1,76.25%,99.6%,115.94%,71.51%,,88.5%,83.28%,99.12%,100.89%,91.34%,112.66%,,94.36%,109%,99.19%,93.06%,,111.09%,108.88%,92.74%
Clc1ccc(-c2nc(-c3cccs3)no2)cc1,90.07%,111.04%,113.5%,89.8%,,93.69%,85.36%,115.07%,105.16%,86.35%,119.78%,81.53%,106.56%,103.69%,106.39%,96.33%,36.78%,136.36%,109.98%,92.82%
